Source: the NIST ThermoML archive (doi:10.1016/j.fluid.2016.04.012)
± gives the expanded uncertainty stated by the source.

Settings: Liquid, Closed cell (Static) method

| vapor or sublimation pressure (337.85 K) [kPa] | vapor or sublimation pressure (338.65 K) [kPa] | SMILES |
| --- | --- | --- |
| 101.3 ± 1.1 | – | CO [methanol] |
| – | 101.3 ± 1.1 | C1CCOC1 [tetrahydrofuran] |
